Measured values published in PubChem BioAssay (NCI).
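Following 48 hours of exposure in 96-well plates, responses at five concentrations were used to interpolate endpoints linearly. Definition used: TGI = concentration required for complete inhibition of growth.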

How the values were obtained:
Experiment in all cases: DTP human tumour cell line panel, 48 h
[1] = tested on: 786-0 renal
[2] = tested on: A498 renal
[3] = tested on: A549 NSCLC
[4] = tested on: ACHN renal
[5] = tested on: BT-549 breast
[6] = tested on: CAKI-1 renal
[7] = tested on: CCRF-CEM leukemia
[8] = tested on: COLO 205 colon
[9] = tested on: DU-145 prostate
[10] = tested on: EKVX NSCLC
[11] = tested on: HCC-2998 colon
[12] = tested on: HCT-116 colon
[13] = tested on: HCT-15 colon
[14] = tested on: HL-60(TB) leukemia
[15] = tested on: HOP-62 NSCLC
[16] = tested on: HOP-92 NSCLC
[17] = tested on: HS 578T breast
[18] = tested on: HT29 colon
[19] = tested on: IGROV1 ovarian
[20] = tested on: K-562 leukemia
[21] = tested on: KM12 colon
[22] = tested on: LOX IMVI melanoma
[23] = tested on: M14 melanoma
[24] = tested on: MALME-3M melanoma
[25] = tested on: MCF7 breast
[26] = tested on: MDA-MB-231 breast
[27] = tested on: MDA-MB-435
[28] = tested on: MDA-N
[29] = tested on: MOLT-4 leukemia
[30] = tested on: NCI-H226 lung
[31] = tested on: NCI-H23 lung
[32] = tested on: NCI-H460 lung
[33] = tested on: NCI-H522 lung
[34] = tested on: NCI/ADR-RES ovarian
[35] = tested on: OVCAR-3 ovarian
[36] = tested on: OVCAR-4 ovarian
[37] = tested on: OVCAR-5 ovarian
[38] = tested on: OVCAR-8 ovarian
[39] = tested on: PC-3 prostate
[40] = tested on: RPMI-8226 leukemia
[41] = tested on: RXF 393 renal
[42] = tested on: SF-268 CNS
[43] = tested on: SF-295 CNS
[44] = tested on: SF-539 CNS
[45] = tested on: SK-MEL-2 melanoma
[46] = tested on: SK-MEL-28 melanoma
[47] = tested on: SK-MEL-5 melanoma
[48] = tested on: SK-OV-3 ovarian
[49] = tested on: SN12C renal
[50] = tested on: SNB-19 CNS
[51] = tested on: SR leukemia
[52] = tested on: SW-620 colon
[53] = tested on: T-47D breast
[54] = tested on: TK-10 renal
[55] = tested on: U251 CNS
[56] = tested on: UACC-257 melanoma
[57] = tested on: UACC-62 melanoma
[58] = tested on: UO-31 renal
[59] = tested on: SNB-75 CNS

## COc1ccccc1-c1cc(=O)c2cccnc2[nH]1
[1]
  TGI: > 100 µM
[2]
  TGI: > 100 µM
[3]
  TGI: > 100 µM
[4]
  TGI: > 100 µM
[5]
  TGI: > 100 µM
[6]
  TGI: > 100 µM
[7]
  TGI: > 100 µM
[8]
  TGI: 96 µM
[9]
  TGI: > 100 µM
[10]
  TGI: > 100 µM
[11]
  TGI: > 100 µM
[12]
  TGI: > 100 µM
[13]
  TGI: > 100 µM
[14]
  TGI: > 100 µM
[15]
  TGI: > 100 µM
[16]
  TGI: 60.2 µM
[17]
  TGI: > 100 µM
[18]
  TGI: > 100 µM
[19]
  TGI: > 100 µM
[20]
  TGI: > 100 µM
[21]
  TGI: > 100 µM
[22]
  TGI: > 100 µM
[23]
  TGI: > 100 µM
[24]
  TGI: > 100 µM
[25]
  TGI: > 100 µM
[26]
  TGI: > 100 µM
[27]
  TGI: 60.5 µM
[28]
  TGI: 56.7 µM
[29]
  TGI: > 100 µM
[30]
  TGI: > 100 µM
[31]
  TGI: > 100 µM
[32]
  TGI: > 100 µM
[33]
  TGI: > 100 µM
[34]
  TGI: > 100 µM
[35]
  TGI: > 100 µM
[36]
  TGI: > 100 µM
[37]
  TGI: > 100 µM
[38]
  TGI: > 100 µM
[39]
  TGI: > 100 µM
[40]
  TGI: > 100 µM
[41]
  TGI: > 100 µM
[42]
  TGI: > 100 µM
[43]
  TGI: > 100 µM
[44]
  TGI: > 100 µM
[45]
  TGI: > 100 µM
[46]
  TGI: > 100 µM
[47]
  TGI: > 100 µM
[48]
  TGI: > 100 µM
[49]
  TGI: > 100 µM
[50]
  TGI: > 100 µM
[51]
  TGI: > 100 µM
[52]
  TGI: > 100 µM
[53]
  TGI: > 100 µM
[54]
  TGI: > 100 µM
[55]
  TGI: > 100 µM
[56]
  TGI: > 100 µM
[57]
  TGI: > 100 µM
[58]
  TGI: > 100 µM

## CC1=NN(C(=O)CC(=O)Nc2cccc(C)c2)C(=O)C1N=Nc1ccc(C(=O)O)cc1 (stereo not drawn)
[1]
  TGI: > 100 µM
[2]
  TGI: > 100 µM
[3]
  TGI: > 100 µM
[4]
  TGI: > 100 µM
[5]
  TGI: > 100 µM
[6]
  TGI: > 100 µM
[7]
  TGI: > 100 µM
[8]
  TGI: > 100 µM
[9]
  TGI: > 100 µM
[10]
  TGI: > 100 µM
[11]
  TGI: > 100 µM
[12]
  TGI: > 100 µM
[13]
  TGI: > 100 µM
[14]
  TGI: > 100 µM
[15]
  TGI: > 100 µM
[16]
  TGI: > 100 µM
[17]
  TGI: > 100 µM
[18]
  TGI: > 100 µM
[19]
  TGI: > 100 µM
[20]
  TGI: > 100 µM
[21]
  TGI: > 100 µM
[22]
  TGI: > 100 µM
[23]
  TGI: > 100 µM
[24]
  TGI: > 100 µM
[25]
  TGI: > 100 µM
[26]
  TGI: > 100 µM
[27]
  TGI: > 100 µM
[28]
  TGI: > 100 µM
[31]
  TGI: > 100 µM
[33]
  TGI: > 100 µM
[34]
  TGI: > 100 µM
[35]
  TGI: > 100 µM
[36]
  TGI: > 100 µM
[37]
  TGI: > 100 µM
[38]
  TGI: > 100 µM
[39]
  TGI: > 100 µM
[40]
  TGI: > 100 µM
[41]
  TGI: > 100 µM
[42]
  TGI: > 100 µM
[43]
  TGI: > 100 µM
[44]
  TGI: > 100 µM
[45]
  TGI: > 100 µM
[46]
  TGI: > 100 µM
[47]
  TGI: > 100 µM
[49]
  TGI: > 100 µM
[50]
  TGI: > 100 µM
[59]
  TGI: > 100 µM
[51]
  TGI: > 100 µM
[52]
  TGI: > 100 µM
[53]
  TGI: > 100 µM
[54]
  TGI: > 100 µM
[55]
  TGI: > 100 µM
[56]
  TGI: > 100 µM
[57]
  TGI: > 100 µM
[58]
  TGI: > 100 µM

## O=C(Nc1nnc(-c2ccccc2)o1)C(SC(=S)N1CCCC1)c1ccccc1 (stereo not drawn)
[1]
  TGI: > 100 µM
[2]
  TGI: 81.6 µM
[3]
  TGI: > 100 µM
[4]
  TGI: > 100 µM
[5]
  TGI: 90 µM
[6]
  TGI: > 100 µM
[7]
  TGI: 71.4 µM
[8]
  TGI: > 100 µM
[9]
  TGI: > 100 µM
[10]
  TGI: 68 µM
[12]
  TGI: 79.5 µM
[13]
  TGI: > 100 µM
[14]
  TGI: 48.1 µM
[15]
  TGI: > 100 µM
[17]
  TGI: > 100 µM
[18]
  TGI: > 100 µM
[19]
  TGI: > 100 µM
[20]
  TGI: > 100 µM
[21]
  TGI: > 100 µM
[22]
  TGI: 41.4 µM
[23]
  TGI: > 100 µM
[24]
  TGI: > 100 µM
[25]
  TGI: > 100 µM
[26]
  TGI: > 100 µM
[27]
  TGI: > 100 µM
[28]
  TGI: > 100 µM
[29]
  TGI: > 100 µM
[30]
  TGI: > 100 µM
[31]
  TGI: 79.7 µM
[32]
  TGI: 62.3 µM
[33]
  TGI: 77.8 µM
[34]
  TGI: 60.1 µM
[35]
  TGI: 74.4 µM
[36]
  TGI: > 100 µM
[37]
  TGI: > 100 µM
[38]
  TGI: > 100 µM
[39]
  TGI: > 100 µM
[40]
  TGI: > 100 µM
[41]
  TGI: > 100 µM
[43]
  TGI: > 100 µM
[44]
  TGI: 91.8 µM
[45]
  TGI: > 100 µM
[46]
  TGI: > 100 µM
[47]
  TGI: 38.2 µM
[48]
  TGI: > 100 µM
[49]
  TGI: > 100 µM
[50]
  TGI: > 100 µM
[59]
  TGI: > 100 µM
[51]
  TGI: > 100 µM
[52]
  TGI: > 100 µM
[53]
  TGI: > 100 µM
[54]
  TGI: > 100 µM
[55]
  TGI: > 100 µM
[56]
  TGI: > 100 µM
[58]
  TGI: 57.8 µM
